According to the supplement of paper PMC10307832:

Tests used:
Experiment in all cases: relative viability (nuclei count vs DMSO), 5 days (fraction); higher = more cells survive
[1] = compound: NCC(=O)Nc1ccc(-n2nc(C(F)(F)F)cc2-c2ccc3c(ccc4ccccc43)c2)cc1 + O=C(c1cc(Cc2n[nH]c(=O)c3ccccc23)ccc1F)N1CCN(C(=O)C2CC2)CC1 [Olaparib] (partner 8 µM)
Procedure, shortened: (§1)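 Nuclei were stained with Hoechst during a one-step fixation (final 0.05% Triton X-100, 1% formaldehyde, 1 ug/ml Hoechst) carried out 5 days after dosing, then counted on 4× images. The cells, lung cancer lines in 1536-well plates, had been dosed by pin tool the day after seeding with one drug alone or a fixed anchor-drug dose plus five library-drug doses (not always all listed) in √10 steps. Relative viability is the nuclei count in treated wells divided by that in vehicle wells, and each value is the median of duplicate plates.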

[2] = compound: NCC(=O)Nc1ccc(-n2nc(C(F)(F)F)cc2-c2ccc3c(ccc4ccccc43)c2)cc1 + C[C@@H](Oc1cc(-c2cnn(C3CCNCC3)c2)cnc1N)c1c(Cl)ccc(F)c1Cl [Crizotinib] (partner 1 µM)
Procedure, shortened: as §1

kb NB 142-70 + Dasatinib = compound: C1CSC2=C(C(=O)N1)SC3=C2C=C(C=C3)O [kb NB 142-70] + Cc1nc(Nc2ncc(C(=O)Nc3c(C)cccc3Cl)s2)cc(N2CCN(CCO)CC2)n1 [Dasatinib] (partner 0.075 µM)
Procedure, shortened: as §1

[3] = compound: C1CSC2=C(C(=O)N1)SC3=C2C=C(C=C3)O [kb NB 142-70] + CC(=O)Nc1cccc(-n2c(=O)n(C3CC3)c(=O)c3c(Nc4ccc(I)cc4F)n(C)c(=O)c(C)c32)c1 [Trametinib] (partner 0.02 µM)
Procedure, shortened: as §1

kb NB 142-70 + Lapatinib = compound: C1CSC2=C(C(=O)N1)SC3=C2C=C(C=C3)O [kb NB 142-70] + CS(=O)(=O)CCNCc1ccc(-c2ccc3ncnc(Nc4ccc(OCc5cccc(F)c5)c(Cl)c4)c3c2)o1 [Lapatinib] (partner 2 µM)
Procedure, shortened: as §1

| Cell Line | relative viability ([1]; first compound 0.02 µM) | relative viability ([1]; first compound 0.06325 µM) | relative viability ([1]; first compound 0.2 µM) | relative viability ([1]; first compound 0.6325 µM) | relative viability ([1]; first compound 2 µM) | relative viability ([2]; first compound 0.02 µM) | relative viability ([2]; first compound 0.06325 µM) | relative viability ([2]; first compound 0.2 µM) | relative viability ([2]; first compound 0.6325 µM) | relative viability ([2]; first compound 2 µM) | relative viability (kb NB 142-70 + Dasatinib; first compound 0.1 µM) | relative viability (kb NB 142-70 + Dasatinib; first compound 1 µM) | relative viability (kb NB 142-70 + Dasatinib; first compound 3.162 µM) | relative viability ([3]; first compound 0.1 µM) | relative viability ([3]; first compound 1 µM) | relative viability ([3]; first compound 3.162 µM) | relative viability (kb NB 142-70 + Lapatinib; first compound 0.1 µM) | relative viability (kb NB 142-70 + Lapatinib; first compound 1 µM) | relative viability (kb NB 142-70 + Lapatinib; first compound 3.162 µM) |
| --- | --- | --- | --- | --- | --- | --- | --- | --- | --- | --- | --- | --- | --- | --- | --- | --- | --- | --- | --- |
| NCI-H1651 | 0.177 | 0.177 | 0.175 | 0.175 | 0.173 | 0.803 | 0.853 | 0.875 | 0.881 | 0.952 | 0.438 | 0.44 | 0.174 | 0.786 | 0.858 | 0.834 | 0.902 | 0.789 | 0.471 |
| NCI-H1666 | 0.734 | 0.83 | 0.824 | 0.747 | 0.776 | 1 | 0.904 | 1.16 | 0.854 | 0.982 | 0.849 | 0.808 | 0.732 | 0.842 | 0.934 | 0.776 | 0.637 | 0.598 | 0.335 |
| NCI-H1734 | 0.629 | 0.603 | 0.678 | 0.569 | 0.575 | 0.801 | 0.611 | 0.788 | 0.739 | 0.683 | 0.449 | 0.421 | 0.278 | 0.717 | 0.633 | 0.531 | 1.06 | 0.895 | 0.523 |
| NCI-H1755 | 0.898 | 0.854 | 0.933 | 0.914 | 0.923 | 0.955 | 0.863 | 0.904 | 0.891 | 0.862 | 0.456 | 0.425 | 0.419 | 0.814 | 0.742 | 0.836 | 1.02 | 1.04 | 1.02 |
| NCI-H1792 | 0.597 | 0.518 | 0.404 | 0.385 | 0.511 | 1.01 | 1.02 | 0.976 | 1 | 0.945 | 0.757 | 0.816 | 0.769 | 0.478 | 0.567 | 0.579 | 0.87 | 0.85 | 1.03 |
| NCI-H1915 | 0.256 | 0.287 | 0.25 | 0.255 | 0.257 | 0.864 | 0.873 | 0.871 | 0.83 | 0.898 | 0.323 | 0.339 | 0.248 | 0.332 | 0.331 | 0.37 | 1.05 | 1 | 0.845 |
| NCI-H1944 | 0.463 | 0.384 | 0.4 | 0.388 | 0.397 | 1.04 | 1.05 | 1.11 | 1.06 | 1.13 | 0.207 | 0.243 | 0.201 | 0.417 | 0.444 | 0.442 | 0.865 | 0.827 | 0.936 |
| NCI-H1975 | 0.763 | 0.847 | 0.887 | 0.744 | 0.873 | 0.96 | 0.954 | 0.954 | 0.906 | 0.914 | 0.395 | 0.421 | 0.364 | 0.407 | 0.339 | 0.248 | 0.894 | 0.881 | 0.433 |
| NCI-H1993 | 1.01 | 1.01 | 1.06 | 0.915 | 1.08 | 0.939 | 0.987 | 0.822 | 1.03 | 0.902 | 0.626 | 0.478 | 0.531 | 0.479 | 0.741 | 0.485 | 0.71 | 0.765 | 0.856 |
| NCI-H2009 | 0.681 | 0.72 | 0.75 | 0.657 | 0.679 | 1.06 | 1.03 | 1.07 | 1.09 | 1.04 | 0.321 | 0.284 | 0.155 | 0.284 | 0.29 | 0.263 | 0.952 | 1.03 | 0.678 |
| NCI-H2023 | 0.604 | 0.543 | 0.516 | 0.401 | 0.464 | 0.737 | 0.751 | 0.619 | 0.703 | 0.702 | 0.51 | 0.536 | 0.5 | 0.52 | 0.559 | 0.566 | 0.809 | 0.758 | 0.486 |
| NCI-H2085 | 0.853 | 0.802 | 0.801 | 0.829 | 0.812 | 0.862 | 0.901 | 0.938 | 0.865 | 0.819 | 0.252 | 0.198 | 0.274 | 0.515 | 0.542 | 0.325 | 0.764 | 0.727 | 0.48 |
| NCI-H2087 | 0.583 | 0.525 | 0.592 | 0.67 | 0.634 | 0.779 | 0.866 | 0.889 | 0.906 | 0.885 | 0.907 | 1.04 | 0.608 | 0.18 | 0.263 | 0.194 | 0.935 | 1.22 | 0.897 |
